# From patent US8952024B2, “Herbicidal pyrimidone derivatives” (E I du Pont de Nemours and Company, priority 2009, dated 2015)
# Legend:
# Test in all cases: Test B pre-/postemergence plant response
# Assay type in all cases: in vivo
# Settings in all cases: Postemergence
# [1] = system: Italian ryegrass (Lolium multiflorum)
# Outline: (§1)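 Plants treated either at seeding (loam/sand soil) or postemergence at 2 to 18 cm height, using a surfactant-containing non-phytotoxic solvent formulation. Evaluation was visual after 13 to 15 days, 0 to 100 scale relative to controls.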
# [2] = system: Surinam grass (Brachiaria decumbens)
# Outline: as §1
# [3] = system: bermudagrass (Cynodon dactylon)
# Outline: as §1
# [4] = system: blackgrass (Alopecurus myosuroides)
# Outline: as §1
# [5] = system: corn (Zea mays)
# Outline: as §1
# [6] = system: downy bromegrass (Bromus tectorum)
# Outline: as §1
# [7] = system: giant foxtail (Setaria faberii)
# Outline: as §1
# [8] = system: goosegrass (Eleusine indica)
# Outline: as §1
# [9] = system: green foxtail (Setaria viridis)
# Outline: as §1
# [10] = system: johnsongrass (Sorghum halepense)
# Outline: as §1
# [11] = system: kochia (Kochia scoparia)
# Outline: as §1
# [12] = system: lambsquarters (Chenopodium album)
# Outline: as §1
# [13] = system: large crabgrass (Digitaria sanguinalis)
# Outline: as §1
# [14] = system: ragweed (common ragweed, Ambrosia elatior)
# Outline: as §1
# [15] = system: velvetleaf (Abutilon theophrasti)
# Outline: as §1
# [16] = system: woolly cupgrass (Eriochloa villosa)
# Outline: as §1
# [17] = system: yellow nutsedge (Cyperus esculentus)
# Outline: as §1
# [18] = 31 g ai/ha, 0 to 100 scale (0 no effect, 100 complete control)
# [19] = 250 g ai/ha, scale 0 to 100 (0 no effect, 100 complete control), 13 to 15 days
# [20] = 62 g ai/ha, scale 0 to 100 (0 no effect, 100 complete control)
# [21] = 125 g ai/ha, scale 0 to 100 (0 no effect, 100 complete control)
structure (smiles),measurement,setting,value
CCCn1c(-c2ccccc2)ncc(C(=O)C2=C(O)C3CCC(C3)C2=O)c1=O (stereo not shown) [Compound 226],"Plant response rating, Ryegrass, Italian",[1]; [18],0
same,"Plant response rating, Ryegrass, Italian",[1]; [19],20
same,"Plant response rating, Ryegrass, Italian",[1]; [20],0
same,"Plant response rating, Surinam Grass",[2]; [18],75
same,"Plant response rating, Surinam Grass",[2]; [19],85
same,"Plant response rating, Surinam Grass",[2]; [20],75
same,"Plant response rating, Bermudagrass",[3]; [18],80
same,"Plant response rating, Bermudagrass",[3]; [21],85
same,"Plant response rating, Bermudagrass",[3]; [19],98
same,"Plant response rating, Bermudagrass",[3]; [20],80
same,"Plant response rating, Blackgrass",[4]; [18],5
same,"Plant response rating, Blackgrass",[4]; [21],40
same,"Plant response rating, Blackgrass",[4]; [19],60
same,"Plant response rating, Blackgrass",[4]; [20],30
same,"Plant response rating, Corn",[5]; [18],75
same,"Plant response rating, Corn",[5]; [21],98
same,"Plant response rating, Corn",[5]; [19],98
same,"Plant response rating, Corn",[5]; [20],80
same,"Plant response rating, Bromegrass, Downy",[6]; [18],0
same,"Plant response rating, Bromegrass, Downy",[6]; [21],5
same,"Plant response rating, Bromegrass, Downy",[6]; [19],30
same,"Plant response rating, Bromegrass, Downy",[6]; [20],0
same,"Plant response rating, Foxtail, Giant",[7]; [18],85
same,"Plant response rating, Foxtail, Giant",[7]; [21],95
same,"Plant response rating, Foxtail, Giant",[7]; [19],95
same,"Plant response rating, Foxtail, Giant",[7]; [20],90
same,"Plant response rating, Goosegrass",[8]; [18],80
same,"Plant response rating, Goosegrass",[8]; [21],85
same,"Plant response rating, Goosegrass",[8]; [19],85
same,"Plant response rating, Goosegrass",[8]; [20],80
same,"Plant response rating, Foxtail, Green",[9]; [18],70
same,"Plant response rating, Foxtail, Green",[9]; [21],90
same,"Plant response rating, Foxtail, Green",[9]; [19],90
same,"Plant response rating, Foxtail, Green",[9]; [20],80
same,"Plant response rating, Johnsongrass",[10]; [18],85
same,"Plant response rating, Johnsongrass",[10]; [21],100
same,"Plant response rating, Johnsongrass",[10]; [19],100
same,"Plant response rating, Johnsongrass",[10]; [20],85
same,"Plant response rating, Kochia",[11]; [18],80
same,"Plant response rating, Kochia",[11]; [21],100
same,"Plant response rating, Kochia",[11]; [19],100
same,"Plant response rating, Kochia",[11]; [20],85
same,"Plant response rating, Lambsquarters",[12]; [18],90
same,"Plant response rating, Lambsquarters",[12]; [21],95
same,"Plant response rating, Lambsquarters",[12]; [19],98
same,"Plant response rating, Lambsquarters",[12]; [20],90
same,"Plant response rating, Crabgrass, Large",[13]; [18],85
same,"Plant response rating, Crabgrass, Large",[13]; [21],95
same,"Plant response rating, Crabgrass, Large",[13]; [19],98
same,"Plant response rating, Crabgrass, Large",[13]; [20],85
same,"Plant response rating, Ragweed",[14]; [18],80
same,"Plant response rating, Ragweed",[14]; [19],90
same,"Plant response rating, Ragweed",[14]; [20],85
same,"Plant response rating, Velvetleaf",[15]; [18],85
same,"Plant response rating, Velvetleaf",[15]; [19],98
same,"Plant response rating, Velvetleaf",[15]; [20],85
same,"Plant response rating, Cupgrass, Woolly",[16]; [18],80
same,"Plant response rating, Cupgrass, Woolly",[16]; [21],85
same,"Plant response rating, Cupgrass, Woolly",[16]; [19],95
same,"Plant response rating, Cupgrass, Woolly",[16]; [20],80
same,"Plant response rating, Nutsedge, Yellow",[17]; [18],55
same,"Plant response rating, Nutsedge, Yellow",[17]; [21],70
same,"Plant response rating, Nutsedge, Yellow",[17]; [19],75
same,"Plant response rating, Nutsedge, Yellow",[17]; [20],65
